Results published in US9204653B2, “5-fluoro pyrimidine derivatives” (DOW AGROSCIENCES LLC, priority 2008, dated 2015).
Read-outs that look alike come from different tables or passages of the source.

Test system: Mycosphaerella graminicola; Anamorph: Septoria tritici; Bayer Code SEPTTR
Assay: Leaf blotch of wheat, foliar fungicide treatment, one day protectant (1DP) or three day curative (3DC)
Type: in vivo, Septoria tritici on wheat plants (variety Yuma)
Conditions: Zymoseptoria tritici, rating of percent disease control
[1] = 24 h, one day protectant (1DP), read-out: SETTTR 1DP 25 ppm
[2] = 24 h, one day protectant (1DP), read-out: SEPTTR 1DP 100 ppm
[3] = 72 h, three day curative (3DC), read-out: SEPTTR 3DC 25 ppm
[4] = 72 h, three day curative (3DC), read-out: SEPTTR 3DC 100 ppm

SMILES	pest or weed control at 25 ppm [1] [%]	pest or weed control at 100 ppm [2] [%]	pest or weed control at 25 ppm [3] [%]	pest or weed control at 100 ppm [4] [%]
Cc1cc(COc2ncc(F)c(N)n2)nn1C [Compound 431]	76 to 100	76 to 100	76 to 100	76 to 100
CC1(COc2ncc(F)c(N)n2)COC1 [Compound 433]	0 to 25	0 to 25	0 to 25	0 to 25
CC[Si](CC)(CC)Nc1nc(OCc2ccn(C)n2)ncc1F [Compound 434]	76 to 100	76 to 100	76 to 100	76 to 100
O=C(Nc1nc(OCc2ccccc2)ncc1F)c1ccccc1 [Compound 435]	76 to 100	76 to 100	51 to 75	76 to 100
N#Cc1cc(COc2ncc(F)c(N)n2)ccn1 [Compound 437]	0 to 25	51 to 75	0 to 25	51 to 75
Fc1ccccc1CNC(=S)Nc1nc(OCc2ccccc2)ncc1F [Compound 438]	51 to 75	76 to 100	0 to 25	0 to 25
Cc1cc(C)cc(COc2ncc(F)c(NSc3ccccc3[N+](=O)[O-])n2)c1 [Compound 440]	0 to 25	0 to 25	26 to 50	0 to 25
CC(C)Oc1cccc(COc2ncc(F)c(N)n2)c1 [Compound 441]	76 to 100	76 to 100	76 to 100	76 to 100
Nc1nc(OCc2snc(Cl)c2Cl)ncc1F [Compound 442]	76 to 100	76 to 100	76 to 100	76 to 100
Cc1ccc(COc2ncc(F)c(NSc3ccccc3[N+](=O)[O-])n2)cc1 [Compound 443]	76 to 100	76 to 100	26 to 50	26 to 50
COc1ccccc1OC(=O)Oc1ncc(F)c(/N=C/N(C)C)n1 [Compound 444]	76 to 100	76 to 100	76 to 100	76 to 100
CCCNC(=O)N(C(=O)NCCC)c1nc(OCc2cccc(F)c2)ncc1F [Compound 445]	51 to 75	76 to 100	76 to 100	76 to 100
COc1cc(COc2ncc(F)c(N)n2)c(OC)cc1C [Compound 450]	76 to 100	76 to 100	76 to 100	51 to 75
N#CNc1nc(OCc2ccc(F)cc2)ncc1F [Compound 451]	0 to 25	0 to 25	0 to 25	0 to 25
O=C(Cc1ccccc1)Nc1nc(OCc2cccs2)ncc1F [Compound 453]	76 to 100	76 to 100	51 to 75	76 to 100
ON(c1nc(OCc2ccc(F)cc2)ncc1F)C1CCCCC1 [Compound 454]	0 to 25	76 to 100	26 to 50	0 to 25
Nc1nc(OCCc2ccc(Cl)cc2)ncc1F [Compound 455]	51 to 75	76 to 100	26 to 50	76 to 100
NN(Cc1ccccc1Cl)c1nc(OCc2ccc(F)cc2)ncc1F [Compound 456]	51 to 75	76 to 100	0 to 25	76 to 100
COCCCOc1ncc(F)c(/N=C/N(C)C)n1 [Compound 457]	51 to 75	76 to 100	51 to 75	76 to 100
Fc1cccc(COc2ncc(F)c(NCOCc3ccccc3)n2)c1 [Compound 458]	0 to 25	51 to 75	0 to 25	0 to 25
COCCOC(=O)Nc1nc(OCc2cccc(OC)c2)ncc1F [Compound 459]	51 to 75	76 to 100	76 to 100	76 to 100
Nc1nc(OCc2cccc(OC(F)(F)F)c2)ncc1F [Compound 460]	76 to 100	76 to 100	76 to 100	76 to 100
COc1ccc(CCCOc2ncc(F)c(N)n2)cc1 [Compound 462]	51 to 75	76 to 100	51 to 75	26 to 50

SMILES	pest or weed control at 25 ppm [1] [%]	pest or weed control at 100 ppm [2] [%]	pest or weed control at 25 ppm [3] [%]	pest or weed control at 100 ppm [4] [%]
COc1cccc(COc2ncc(F)c(NOC(C)C)n2)c1 [Compound 463]	0 to 25	51 to 75	26 to 50	51 to 75
COc1ccc(COc2ncc(F)c(NC(=O)NCc3ccccc3F)n2)cc1F [Compound 464]	0 to 25	0 to 25	0 to 25	26 to 50
Nc1nc(OCc2ccc3ccccc3n2)ncc1F [Compound 465]	76 to 100	76 to 100	76 to 100	76 to 100
CC(C)OC(=O)Oc1ncc(F)c(/N=C/N(C)C)n1 [Compound 467]	76 to 100	76 to 100	76 to 100	76 to 100
Nc1nc(OCc2cccc(Cl)c2)ncc1F [Compound 468]	76 to 100	76 to 100	76 to 100	76 to 100
Cc1cc(C)nc(NNc2nc(OCc3ccccc3)ncc2F)n1 [Compound 470]	0 to 25	0 to 25	26 to 50	26 to 50
Nc1nc(OCc2cn3ccsc3n2)ncc1F [Compound 472]	76 to 100	76 to 100	76 to 100	76 to 100
NNc1nc(OCc2ccc(F)cc2)ncc1F [Compound 473]	26 to 50	76 to 100	26 to 50	76 to 100
CC(Oc1ncc(F)c(N)n1)c1ccc(Oc2ccccc2)cc1 (stereo not drawn) [Compound 474]	76 to 100	76 to 100	76 to 100	76 to 100
CCCNC(=S)Nc1nc(OCc2ccccc2OC)ncc1F [Compound 475]	51 to 75	76 to 100	51 to 75	76 to 100
COc1ccc(COc2ncc(F)c(N)n2)cc1C(F)(F)F [Compound 476]	76 to 100	76 to 100	76 to 100	76 to 100
O=C(NCc1ccccc1F)Nc1nc(OCc2ccc(F)cc2)ncc1F [Compound 477]	0 to 25	0 to 25	0 to 25	51 to 75
O=C(Nc1nc(OCc2cccc(F)c2)ncc1F)OCc1ccccc1 [Compound 478]	51 to 75	76 to 100	76 to 100	76 to 100
O=[N+]([O-])c1ccccc1SNc1nc(OCc2c(F)cc(Br)cc2F)ncc1F [Compound 479]	76 to 100	76 to 100	51 to 75	51 to 75
CNc1nc(OCc2cc(OC)c(OC)c(OC)c2)ncc1F [Compound 480]	0 to 25	0 to 25	0 to 25	0 to 25
NN(c1ccccc1)c1nc(OCc2ccccc2)ncc1F [Compound 482]	0 to 25	0 to 25	0 to 25	26 to 50
CN(C)/C=N/c1nc(OC(=O)c2cccc(Cl)c2)ncc1F [Compound 484]	76 to 100	76 to 100	76 to 100	76 to 100
O=C(Nc1ccccc1)Nc1nc(OCc2ccc(F)cc2)ncc1F [Compound 485]	0 to 25	0 to 25	0 to 25	0 to 25
Cc1noc(-c2ccccc2COc2ncc(F)c(N)n2)n1 [Compound 486]	0 to 25	0 to 25	26 to 50	26 to 50
CN(O)c1nc(OCc2ccc(F)cc2)ncc1F [Compound 487]	0 to 25	76 to 100	0 to 25	76 to 100
CC#CCOc1ncc(F)c(N)n1 [Compound 489]	0 to 25	51 to 75	76 to 100	76 to 100
CCOC(=O)Nc1nc(OCc2ccc(C)cc2)ncc1F [Compound 490]	76 to 100	76 to 100	76 to 100	76 to 100
